According to patent publication US11932595B2, “VDR-silent vitamin D derivative as inhibitors of SREBP and pharmaceutical use thereof” (KYOTO UNIVERSITY, priority 2020, dated 2024):
“Also recorded” adds a separate entry of the source.

Target: T1, endogenous SREBP-2 and SCAP (Cricetulus griseus, UniProt P97260)
T1 construct: Western blot analysis of endogenous SREBP-2 and SCAP; endogenous in cells; host or cells: CHO-K1
T1 sequence (P97260 1-1276): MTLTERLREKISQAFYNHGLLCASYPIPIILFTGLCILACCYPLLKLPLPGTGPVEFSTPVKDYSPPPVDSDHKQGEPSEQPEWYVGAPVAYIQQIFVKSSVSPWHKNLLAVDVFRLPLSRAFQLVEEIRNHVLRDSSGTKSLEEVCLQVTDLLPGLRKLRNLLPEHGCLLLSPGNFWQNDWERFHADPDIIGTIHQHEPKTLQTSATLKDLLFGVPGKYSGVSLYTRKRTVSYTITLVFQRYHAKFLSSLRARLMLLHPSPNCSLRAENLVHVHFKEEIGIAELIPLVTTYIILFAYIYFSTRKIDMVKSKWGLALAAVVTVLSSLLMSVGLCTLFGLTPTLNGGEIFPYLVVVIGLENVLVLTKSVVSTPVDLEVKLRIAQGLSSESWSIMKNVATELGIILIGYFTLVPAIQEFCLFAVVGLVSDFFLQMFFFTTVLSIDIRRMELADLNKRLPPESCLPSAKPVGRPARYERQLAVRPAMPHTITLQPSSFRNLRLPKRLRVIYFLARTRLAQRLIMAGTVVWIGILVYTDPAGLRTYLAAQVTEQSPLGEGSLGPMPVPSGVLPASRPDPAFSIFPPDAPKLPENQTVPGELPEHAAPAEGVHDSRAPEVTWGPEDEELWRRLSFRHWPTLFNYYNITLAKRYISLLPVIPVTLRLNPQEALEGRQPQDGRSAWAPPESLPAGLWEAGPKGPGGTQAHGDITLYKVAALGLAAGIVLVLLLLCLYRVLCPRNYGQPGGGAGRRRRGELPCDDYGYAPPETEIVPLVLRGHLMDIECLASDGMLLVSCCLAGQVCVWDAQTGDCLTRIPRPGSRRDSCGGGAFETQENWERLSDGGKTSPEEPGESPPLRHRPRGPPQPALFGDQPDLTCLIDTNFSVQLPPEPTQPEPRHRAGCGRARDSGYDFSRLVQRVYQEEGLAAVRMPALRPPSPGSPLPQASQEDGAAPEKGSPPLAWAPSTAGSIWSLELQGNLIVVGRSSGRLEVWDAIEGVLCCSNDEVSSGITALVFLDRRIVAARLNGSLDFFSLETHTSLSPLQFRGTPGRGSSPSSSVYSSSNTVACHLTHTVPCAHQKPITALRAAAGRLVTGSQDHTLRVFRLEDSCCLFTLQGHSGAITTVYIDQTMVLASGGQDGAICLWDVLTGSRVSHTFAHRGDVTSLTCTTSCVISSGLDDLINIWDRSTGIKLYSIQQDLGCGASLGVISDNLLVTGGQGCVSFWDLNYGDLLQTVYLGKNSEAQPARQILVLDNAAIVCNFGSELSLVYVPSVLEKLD
T1 sequence (Q60429 1-1139 partner): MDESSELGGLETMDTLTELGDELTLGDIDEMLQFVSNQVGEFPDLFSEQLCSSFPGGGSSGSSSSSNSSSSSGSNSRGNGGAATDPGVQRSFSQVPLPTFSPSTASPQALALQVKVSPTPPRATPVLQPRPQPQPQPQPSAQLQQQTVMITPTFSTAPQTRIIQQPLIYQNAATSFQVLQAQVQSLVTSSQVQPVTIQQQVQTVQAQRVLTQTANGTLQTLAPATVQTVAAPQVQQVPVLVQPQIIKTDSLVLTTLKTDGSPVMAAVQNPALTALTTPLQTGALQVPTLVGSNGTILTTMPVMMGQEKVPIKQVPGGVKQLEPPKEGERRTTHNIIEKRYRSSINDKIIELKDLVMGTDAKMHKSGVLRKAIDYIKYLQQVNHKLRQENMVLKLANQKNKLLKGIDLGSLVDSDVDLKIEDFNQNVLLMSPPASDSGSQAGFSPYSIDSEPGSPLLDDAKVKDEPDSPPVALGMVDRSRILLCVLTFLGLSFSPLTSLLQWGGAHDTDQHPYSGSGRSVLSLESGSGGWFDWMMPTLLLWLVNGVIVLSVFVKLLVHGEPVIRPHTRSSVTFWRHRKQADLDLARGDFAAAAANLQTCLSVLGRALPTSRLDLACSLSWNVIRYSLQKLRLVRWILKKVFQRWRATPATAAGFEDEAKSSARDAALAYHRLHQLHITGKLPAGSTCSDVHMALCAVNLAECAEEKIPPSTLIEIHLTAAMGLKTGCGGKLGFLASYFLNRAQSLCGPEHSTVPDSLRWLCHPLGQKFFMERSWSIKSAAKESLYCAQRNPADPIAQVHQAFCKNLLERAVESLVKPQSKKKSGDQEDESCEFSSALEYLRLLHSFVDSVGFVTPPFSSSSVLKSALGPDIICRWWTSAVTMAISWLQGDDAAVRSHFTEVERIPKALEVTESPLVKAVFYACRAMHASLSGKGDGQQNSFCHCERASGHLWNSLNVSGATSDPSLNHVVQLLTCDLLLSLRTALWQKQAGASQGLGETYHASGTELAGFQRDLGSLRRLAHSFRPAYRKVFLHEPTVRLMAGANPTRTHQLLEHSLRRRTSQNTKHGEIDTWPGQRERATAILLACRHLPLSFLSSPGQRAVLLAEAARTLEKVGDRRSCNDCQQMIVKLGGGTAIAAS
Assay: Western blot analysis of endogenous SREBP-2 and SCAP in CHO-K1 cells
Format: cell-based
Details: FIG. 6B; for protein levels of precursor and mature forms of SREBP-2 and of SCAP: CHO-K1 cells, lipid-free medium, 24 h
Experimental: 25(OH)D3 and KK-052 decreased the protein levels of both precursor and mature forms of SREBP-2, as well as SCAP. (CHO-K1 cells were treated with the compound in a lipid-free medium for 24 h); (C) Western blot analysis of SCAP: CHO-K1 cells expressing FLAG-tagged SCAP were treated with the compound in a lipid-free medium for 24 h and immunoblots were performed with an anti-FLAG antibody.
The effects of KK-052 (50) on SREBP and SCAP by gene reporter assay and Western blot analysis were verified. […] Overall, the results were consistent with the effects of KK-052 in vivo.

Row | effect on endogenous SREBP and SCAP levels at 1 μM (1 μM concentration) | SMILES | protein levels of precursor and mature forms of SREBP-2 and of SCAP (listed as KK-052) | protein levels of precursor and mature forms of SREBP-2 and of SCAP
1 | less evident | C[C@H](CCC(F)(F)C(C)(C)O)[C@H]1CC[C@H]2/C(=C/Cn3nnnc3-c3ccccc3)CCC[C@]12C [Compound 50, (R)-3,3-Difluoro-2-methyl-6-{(1R,3aS,7aR,E)-7a-methyl-4-[2-(5-phenyl-1H-tetrazol-1-yl)ethylidene]octahydro-1H-inden-1-yl}heptan-2-ol] | decreased; also recorded: decreasing the level | 
2 |  | C=C1CC[C@H](O)C/C1=C/C=C1\CCC[C@]2(C)[C@@H]([C@H](C)CCCC(C)(C)O)CC[C@@H]12 [25(OH)D3, 25-hydroxyvitamin D3, reference compound] |  | decreased
